Legend:
[1] = Rejection of micropollutants by low pressure reverse osmosis (LPRO), diluted DS as feed; conditions: permeate of LPRO at 15 bar
[2] = stated with the literature report; cited from earlier work

| Structure (SMILES) | concentration, Permeate LPRO [1] [ng/mL] | log D [2] |
| --- | --- | --- |
| Cc1ccc(C)c(OCCCC(C)(C)C(=O)O)c1 [Gemfibrozil] | <0.01 |  |
| C[C@]12CC[C@@H]3c4ccc(O)cc4CC[C@H]3[C@@H]1CCC2=O [estrone] |  | 3.46 |
| CC(C(=O)O)c1cccc(Oc2ccccc2)c1 (stereo not drawn) [Fenoprofen] | <0.01 |  |
| Cn1c(=O)c2c(ncn2C)n(C)c1=O [Caffeine] | 0.03 |  |
| CC(C)(c1ccc(O)cc1)c1ccc(O)cc1 [Bisphenol A] | 0.058 |  |
| CC(=O)Nc1ccc(O)cc1 [Acetaminophen] | 0.31 |  |
| C[C@]12CC[C@@H]3c4ccc(O)cc4CC[C@H]3[C@@H]1CC[C@@H]2O [estradiol] |  | 3.94 |
| Cc1ncc([N+](=O)[O-])n1CCO [Metronidazole] | 0.08 |  |

Continued, in another order:

| concentration, Permeate LPRO [1] [ng/mL] | Structure (SMILES) | log D [2] |
| --- | --- | --- |
| <0.001 | C#C[C@]1(O)CC[C@H]2[C@@H]3CCc4cc(O)ccc4[C@H]3CC[C@@]21C [17α-ethynilestradiol] |  |
| <0.01 | CC(C(=O)O)c1cccc(C(=O)c2ccccc2)c1 (stereo not drawn) [Ketoprofen] |  |
| <0.5 | C1COCCO1 [1,4-dioxane] |  |
| 0.02 | NC(=O)N1c2ccccc2C=Cc2ccccc21 [Carbamazepine] |  |
